Data reported in the supplement of paper PMC12137928.

Key:
HCT116 [1] = details: 72 h
Procedure, shortened: (§1)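 Luminescence was read with CellTiter-Glo in HCT116 cells seeded at 250 per well in 1536-well plates. Signals were scaled between vehicle at 0% and positive control at -100%, then pattern-corrected. IC50 and maximal efficacy were obtained by fitting a four-parameter Hill equation.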

HCT116 [2] = assay: efficacy (maximum % inhibition of viability vs DMSO); higher = more cytotoxic; details: 72 h
Procedure, shortened: as §1

IC50 cell viability (HCT116 [1]; ICRF193 0 nM): 25.9 µM | IC50 cell viability (HCT116 [1]; ICRF193 200 nM): 16.4 µM
Compound: OCCN1CCN(CC/C=C2/c3ccccc3Sc3ccc(C(F)(F)F)cc32)CC1 [cis-Flupentixol]
efficacy (HCT116 [2]; ICRF193 0 nM): 119% | efficacy (HCT116 [2]; ICRF193 200 nM): 102%
